Test results taken from EP1117659B1, “SUBSTITUTED 3-CYANOQUINOLINES AS PROTEIN TYROSINE KINASES INHIBITORS” (Wyeth Holdings Corporation, priority 1998, dated 2000).
pIC50: −log10 of the molar value. Values after ≈ are worked out from the molar mass of the structure shown.

Experiments:
A2780 = experiment: Inhibition of Cancer Cell Growth as Measured by Cell Number (Sulforhodamine B); assay type: cell-based; settings: Homo sapiens, 48 hours exposure
Procedure: (§1) Human tumor cell lines were plated in 96-well plates (250 µl/well, 1-6 x 10^4 cells/ml) in RPMI 1640 medium, containing 5% FBS (Fetal Bovine Serum). […] After 48 hours exposure to test compounds, cells were fixed with trichloroacetic acid, and stained with Sulforhodamine B. After washing with trichloroacetic acid, bound dye was solubilized in 10 mM Tris base and optical density was determined using plate reader. Under conditions of the assay the optical density is proportional to the number of cells in the well. […] The test procedure is described in details by Philip Skehan et. al, J.Natl. Canc. Inst., 82, 1107-1112 (1990). […] Information about some of the cell lines used in these test procedures is available from the American Type Tissue Collection: Cell Lines and Hybridomas, 1994 Reference Guide, 8th Edition.

DDP = experiment: as above; assay type: cell-based; settings: Homo sapiens; 48 hours exposure
Procedure: as §1

[1] = molecular target: T1, Kinase insert Domain containing Receptor (KDR: the catalytic domain of the VEGF receptor) (Homo sapiens, UniProt P35968); experiment: Inhibition of Kinase insert Domain containing Receptor (KDR), radioactive phosphorylation of Glu:Tyr copolymer; assay type: biochemical; settings: IC50, substrate phosphorylation
T1 construct: KDR: the catalytic domain of the VEGF receptor
Outline: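 KDR catalytic domain phosphorylates poly(Glu:Tyr 4:1) with Mg++ and sodium vanadate at pH 7.2, started by ATP plus 32P- or 33P-ATP tracer. Acid-insoluble radioactivity quantifies substrate phosphorylation. Repeat entries per compound are separate runs.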

SW620 = experiment: Inhibition of Cancer Cell Growth as Measured by Cell Number (Sulforhodamine B); assay type: cell-based, Human; settings: Homo sapiens, SW-620, 48 h, 48 hours exposure
Procedure: as §1

A431 = experiment: as above; assay type: cell-based, Human; settings: Homo sapiens, A-431, 48 h, 48 hours exposure
Procedure: as §1

SK-BR3 = experiment: as above; assay type: cell-based, Human; settings: Homo sapiens, SK-BR-3, 48 h, 48 hours exposure
Procedure: as §1

MDA-MB-435 = experiment: as above; assay type: cell-based, Human; settings: Homo sapiens, MDA-MB-435, 48 h, 48 hours exposure
Procedure: as §1

[2] = test system: Human Colon Carcinoma SW620; experiment: In Vivo Inhibition of the Growth of Human Colon Carcinoma SW620 in mice; settings: for S/T = No. Survivors/No. Treated on Day +21 post tumor staging / %T/C Day 7 / %T/C Day 14 / Relative Tumor Growth Day 14 / %T/C Day 21 / Relative Tumor Growth Day 21 / Relative Tumor Growth Day 7: days 1 through 20; for tumor growth was inhibited by: 30 mg/kg i.p. during days 1-20
Procedure: A unit of 7 X 10^6 cells were injected SC into mice. […] Control animals received vehicle only. Tumor mass was determined every 7 days [(length X width^2)/2] for 28 days post staging.

3T3/c-erbb2 = experiment: Inhibition of Cancer Cell Growth as Measured by Cell Number (Sulforhodamine B); assay type: cell-based; settings: 48 hours exposure
Procedure: as §1

3T3 = experiment: as above; assay type: cell-based; settings: Mus musculus, NIH3T3; 48 hours exposure
Procedure: as §1

[3] = molecular target: T2, epidermal growth factor receptor kinase (EGF-R Kinase, recombinant enzyme; His-tagged cytoplasmic domain of EGFR) (Homo sapiens, UniProt P00533); experiment: Inhibition of Epidermal Growth Factor Receptor Kinase (EGF-R) using recombinant enzyme, RR-SRC peptide phosphorylation, 33P-ATP; assay type: biochemical
T2 construct: EGFR cDNA encoding amino acids 645 - 1186 preceded by Met-Ala-(His)6; Met-Ala-(His)6 (N); made in house; host or cells: Sf9 insect cells, recombinant baculovirus vHcEGFR52
Outline: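 His-tagged EGFR cytoplasmic domain (aa 645–1186, baculovirus/Sf9) preincubated with compound 10 min on ice, then RR-SRC peptide (80 µM final) and γ-33P-ATP added. Reaction run 90 min at room temperature; peptide-bound 33P counted on P81 filters, background-corrected. IC50 from dose-response of ≥3 concentrations.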

[4] = molecular target: Epithelial Cell Kinase (ECK) (Homo sapiens, UniProt P29317); experiment: Inhibition of Epithelial Cell Kinase (ECK), immobilized biotinylated peptide, HRP anti-phosphotyrosine readout; assay type: biochemical; settings: IC50, substrate phosphorylation
Outline: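 Biotinylated peptide substrate immobilized on neutravidin plates, reacted with ECK, test drug, Mg++ and sodium vanadate at pH 7.2; ATP added to start phosphorylation. After washing, phosphopeptide detected with HRP-conjugated anti-phosphotyrosine antibody, HRP activity reflecting substrate phosphorylation. Repeat entries are separate tests of the same compound.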

T1 sequence (P35968 834-1162 limits assumed): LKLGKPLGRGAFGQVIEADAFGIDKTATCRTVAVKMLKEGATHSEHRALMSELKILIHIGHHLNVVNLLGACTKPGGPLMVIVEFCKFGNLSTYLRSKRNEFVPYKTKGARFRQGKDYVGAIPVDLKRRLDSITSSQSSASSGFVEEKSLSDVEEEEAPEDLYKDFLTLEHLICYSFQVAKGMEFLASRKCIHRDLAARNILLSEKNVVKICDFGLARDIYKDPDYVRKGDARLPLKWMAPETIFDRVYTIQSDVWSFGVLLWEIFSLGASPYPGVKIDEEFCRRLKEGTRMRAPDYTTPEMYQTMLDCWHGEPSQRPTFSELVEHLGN
T2 sequence (P00533 669-1210): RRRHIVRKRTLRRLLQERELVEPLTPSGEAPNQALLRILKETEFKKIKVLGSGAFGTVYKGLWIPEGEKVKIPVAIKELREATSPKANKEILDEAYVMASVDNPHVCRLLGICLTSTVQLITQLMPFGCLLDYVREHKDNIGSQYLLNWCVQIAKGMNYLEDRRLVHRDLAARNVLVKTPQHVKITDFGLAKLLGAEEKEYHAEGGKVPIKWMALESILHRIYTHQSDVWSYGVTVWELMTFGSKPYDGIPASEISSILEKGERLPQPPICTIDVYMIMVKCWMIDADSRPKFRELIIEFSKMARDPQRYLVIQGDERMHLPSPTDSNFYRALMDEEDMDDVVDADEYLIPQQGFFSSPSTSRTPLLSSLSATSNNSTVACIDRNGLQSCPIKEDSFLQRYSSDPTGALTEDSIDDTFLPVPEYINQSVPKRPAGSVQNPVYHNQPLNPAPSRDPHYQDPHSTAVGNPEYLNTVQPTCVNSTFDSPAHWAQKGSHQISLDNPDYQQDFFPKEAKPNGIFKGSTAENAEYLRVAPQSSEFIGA
Epithelial Cell Kinase (ECK), sequence (P29317 24-976, species assumed): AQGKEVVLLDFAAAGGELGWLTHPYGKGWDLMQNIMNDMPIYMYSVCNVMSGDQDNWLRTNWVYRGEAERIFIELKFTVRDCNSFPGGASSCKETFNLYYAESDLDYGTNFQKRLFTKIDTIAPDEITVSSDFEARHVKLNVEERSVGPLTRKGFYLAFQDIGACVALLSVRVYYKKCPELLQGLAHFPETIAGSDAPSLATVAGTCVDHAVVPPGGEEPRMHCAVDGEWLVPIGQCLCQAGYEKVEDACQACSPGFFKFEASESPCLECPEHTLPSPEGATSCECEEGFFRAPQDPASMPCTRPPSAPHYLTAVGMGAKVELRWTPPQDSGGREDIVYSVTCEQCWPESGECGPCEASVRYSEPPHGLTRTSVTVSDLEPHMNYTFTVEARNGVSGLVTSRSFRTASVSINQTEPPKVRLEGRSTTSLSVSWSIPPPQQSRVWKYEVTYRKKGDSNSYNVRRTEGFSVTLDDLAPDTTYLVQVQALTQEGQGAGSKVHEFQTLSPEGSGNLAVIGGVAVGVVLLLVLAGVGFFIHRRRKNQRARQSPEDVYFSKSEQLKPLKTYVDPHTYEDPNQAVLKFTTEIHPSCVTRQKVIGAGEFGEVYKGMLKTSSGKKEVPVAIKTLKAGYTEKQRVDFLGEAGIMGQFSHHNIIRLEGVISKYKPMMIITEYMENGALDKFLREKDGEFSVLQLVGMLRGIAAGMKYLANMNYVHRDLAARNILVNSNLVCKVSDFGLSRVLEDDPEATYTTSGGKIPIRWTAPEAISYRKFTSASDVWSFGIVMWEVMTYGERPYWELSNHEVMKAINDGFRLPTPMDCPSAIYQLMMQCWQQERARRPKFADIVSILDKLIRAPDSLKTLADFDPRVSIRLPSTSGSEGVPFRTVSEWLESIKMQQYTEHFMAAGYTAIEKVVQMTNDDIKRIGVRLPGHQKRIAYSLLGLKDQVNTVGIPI

## CCOc1cc2ncc(C#N)c(Nc3ccc4cn[nH]c4c3)c2cc1OCC [Example 99, 6,7-Diethoxy-4-(1H-indazol-6-ylamino)-quinoline-3-carbonitrile]
A2780
  IC50: 0.032 mg/L (≈ 0.0857 µM)
DDP
  IC50: 0.036 mg/L (≈ 0.0964 µM)
[1]
  pIC50: 4.67
SW620
  IC50: 0.033 mg/L (≈ 0.0884 µM)
A431
  IC50: 0.025 mg/L (≈ 0.0669 µM)
SK-BR3
  IC50: 0.016 mg/L (≈ 0.0428 µM)
MDA-MB-435
  IC50: 0.02 mg/L (≈ 0.0536 µM)
[2]; 3 mg/kg/dose IP
  S/T = No. Survivors/No. Treated on Day +21 post tumor staging: 5/5
  %T/C Day 7: 93%
  %T/C Day 14: 108%
  Relative Tumor Growth Day 14: 12.53
  %T/C Day 21: 147%
  Relative Tumor Growth Day 21: 16.47
[2]; 10 mg/kg/dose IP
  S/T = No. Survivors/No. Treated on Day +21 post tumor staging: 5/5
  %T/C Day 7: 90%
  Relative Tumor Growth Day 7: 3.69
  %T/C Day 14: 68%
  Relative Tumor Growth Day 14: 7.88
  %T/C Day 21: 87%
  Relative Tumor Growth Day 21: 9.75
[2]; day 7
  tumor growth was inhibited by: 56%
[2]; day 14
  tumor growth was inhibited by: 67%
[2]; day 21
  tumor growth was inhibited by: 60%
[2]; 30 mg/kg/dose IP
  S/T = No. Survivors/No. Treated on Day +21 post tumor staging: 4/5
  %T/C Day 7: 44%
  Relative Tumor Growth Day 7: 1.81
  %T/C Day 14: 33%
  Relative Tumor Growth Day 14: 3.85
  %T/C Day 21: 40%
  Relative Tumor Growth Day 21: 4.44

## CCOc1cc2ncc(C#N)c(Nc3ccc4cc[nH]c4c3)c2cc1OCC [Example 101, 6,7-Diethoxy-4-(1H-indol-6-ylamino)-quinoline-3-carbonitrile]
A2780
  IC50: 0.231 mg/L (≈ 0.62 µM)
3T3/c-erbb2
  IC50: 0.933 mg/L (≈ 2.51 µM)
DDP
  IC50: 0.313 mg/L (≈ 0.84 µM)
3T3
  IC50: 1.53 mg/L (≈ 4.11 µM)
[1]
  pIC50: 5.27
[3]; read-out: %Inh @ 0.5 µM
  inhibition at 0.5 µM: 27%
[3]; recombinant enzyme, 90 min at room temperature
  pIC50: < 6.00
SW620
  IC50: 0.326 mg/L (≈ 0.875 µM)
A431
  IC50: 0.216 mg/L (≈ 0.58 µM)
[4]
  pIC50: < 4.27
